{
  "source": "patent US20220175926A1",
  "about": "“TARGETED SYNERGISTIC CANCER IMMUNOTHERAPY” (The Brigham and Women's Hospital, Inc., priority 2019, published 2022)",
  "key": {"[1]": {"system": "CT26", "test": "Transwell co-culture assay, viability of CT26 tumor cells cocultured with RAW 264.7 macrophages (XTT)", "assay_type": "cell-based", "conditions": "single component or component removed", "experimental": "RAW 264.7 macrophages were seeded in a Transwell insert at a density of 200,000 cells per insert (Corning, N.Y., USA) and CT26 (ATCC, VA, USA) were seeded in the lower compartment at a density of 200,000 cells per well, which was separated by a porous membrane (well area: 0.3 cm^2, insert size: 6.5 mm). Cells were incubated with […] and/or 20 ng/mL ICG for 24 h. Ultrasound irradiation (frequency: 1 MHz; duty cycle: 50%; power: 2 W/cm^2) was performed for 5 min. The viability of tumor cells after treatment with different formulations in the absence or presence of ultrasound was determined by XTT Cell Proliferation Assay Kit (ATCC, VA, USA) following the manufacturer's instructions."}, "[2]": {"system": "RAW 264.7 macrophages", "test": "TNFα secretion from RAW 264.7 macrophages (ELISA)", "assay_type": "cell-based, mouse", "conditions": "RAW264.7 macrophages; compared with no treatment control", "protocol": "RAW 264.7 macrophages (ATCC, VA, USA) were seeded in a 96 well plate at a density of 20,000 cells per well. Cells were incubated with 10 ng/mL R848 (Sigma, MO, USA) and/or 20 ng/mL ICG (Sigma, MO, USA) for 24 h. Ultrasound irradiation (frequency: 1 MHz; duty cycle: 50%; power: 2 W/cm^2) was applied to these cells for up to 5 min. TNFα secretion was analyzed by mouse TNFα DuoSet ELISA (R&D Systems, MN, USA) following the manufacturer's instructions. […] In some experiments, cells were also treated with 0.5, 1, or 2 mM of ROS scavenger N-acetyl-cysteine (Sigma, MO, USA) right before treatment with ultrasound."}, "[3]": {"system": "iBMDM", "test": "IL-1β secretion from iBMDM (ELISA)", "assay_type": "cell-based, mouse", "experimental": "RAW 264.7 macrophages (ATCC, VA, USA) were seeded in a 96 well plate at a density of 20,000 cells per well. Cells were incubated with 10 ng/mL R848 (Sigma, MO, USA) and/or 20 ng/mL ICG (Sigma, MO, USA) for 24 h. Ultrasound irradiation (frequency: 1 MHz; duty cycle: 50%; power: 2 W/cm^2) was applied to these cells for up to 5 min. TNFα secretion was analyzed by mouse TNFα DuoSet ELISA (R&D Systems, MN, USA) following the manufacturer's instructions. To measure IL-1β secretion, immortal bone marrow derived macrophages or iBMDM (BCH, MA, USA)) were seeded in a 96 well plate at a density of 20,000 cells per well. Cells were incubated with 10 ng/mL PAPC (Avanti, AL, USA) and/or 20 ng/mL ICG for 24 h. Ultrasound irradiation (frequency: 1 MHz; duty cycle: 50%; power: 2 W/cm^2) was applied to these cells for up to 5 min. IL-1β secretion was analyzed by mouse IL-1β ELISA (Invitrogen, CA, USA) following the manufacturer's instructions. In some experiments, cells were also treated with 0.5, 1, or 2 mM of ROS scavenger N-acetyl-cysteine (Sigma, MO, USA) right before treatment with ultrasound."}, "[4]": {"test": "Pharmacokinetic study after intravenous injection", "assay_type": "in vivo", "conditions": "C57BL/6 mice", "experimental": "C57BL/6 mice were intravenously injected with free ICG or lipo-ICG (liposome encapsulated ICG). At predetermined time points (0.25, 1, 3, 7, and 24 h post injection), 50 ul blood were collected in Microvette 500 Z-gel tubes by submandibular bleeding and kept on ice. The samples were centrifuged at 10,000 g for 5 min at room temperature, and 10 ul of the serum were diluted to 100 ul with PBS and the fluorescence intensity was measured at Ex=780, Em=810 nm."}, "[5]": {"test": "Loading efficiency in liposomes", "assay_type": "physicochemical", "conditions": "sonosensitizer incubated with preformed liposomes at room temperature", "experimental": "The lipid suspension was extruded through the 100 nm polycarbonate membrane using the extruder (Avanti, AL, USA) to obtain blank liposomes. Ethanol was removed by dialysis overnight at 4° C. To load the sonosensitizer in liposomes, ICG was firstly conjugated to a lipid tail such as DOPE before incubation with preformed blank liposomes at room temperature for 30 min. Unloaded ICG was removed by using the PD-10 column (GE Healthcare). To load PAPC (Avanti, AL, USA) in liposomes, the proper amount of PAPC in DMSO stock solution was incubated with liposomes containing ICG at room temperature for 30 min and the obtained formulation was used without further purification. To load R848 (Sigma, MO, USA) in liposomes, blank liposomes were firstly prepared in 250 mM ammonium sulfate, and the external ammonium sulfate was exchanged to 10% sucrose by dialysis overnight at 4° C., followed by incubation with R848 at 55° C. for 30 min and removal of unloaded R848 by dialysis overnight at 4° C. To measure the size of liposomes, 10 ul of liposomes were diluted to 2 mL with PBS and the size was measured with Zeta sizer. To measure the amount of ICG, 10 ul liposomes were added with 190 ul DMSO and the fluorescence was measured at Ex=780 nm, Em=810 nm."}},
  "data": [
    {"smiles": "CC1(C)C(/C=C/C=C/C=C/C=C2\\N(CCCCS(=O)(=O)O)c3ccc4ccccc4c3C2(C)C)=[N+](CCCCS(=O)(=O)[O-])c2ccc3ccccc3c21", "note": "[ICG, indocyanine green]", "values": [
      {"measurement": "CT26 cell viability", "setting": "[1]", "value": "modest decrease of CT26 cell viability"},
      {"measurement": "TNFα release", "setting": "[2]", "value": "didn't induce significant TNFα release"},
      {"measurement": "IL-1β release", "setting": "[3]", "value": "didn't induce any detectable level of IL-1β"},
      {"measurement": "detectability of ICG in serum after injection", "setting": "[4]", "value": "not detectable within a few minutes after injection"},
      {"measurement": "loading efficiency", "setting": "[5]", "value": "less than 20%"}
    ]},
    {"smiles": "CC(=O)N[C@@H](CS)C(=O)O", "note": "[NAC, N-acetyl-cysteine]", "values": [
      {"measurement": "IL-1β release on ROS depletion", "setting": "[3]; ROS scavenger added to PAPC+ICG+US", "value": "dose dependent reduction of IL-1β"}
    ]},
    {"smiles": "CCCCC/C=C\\C/C=C\\C/C=C\\C/C=C\\CCCC(=O)O[C@H](COC(=O)CCCCCCCCCCCCCCC)COP(=O)([O-])OCC[N+](C)(C)C", "note": "[PAPC, 1-palmitoyl-2-arachidonoyl-sn-glycero-3-phosphocholine]", "values": [
      {"measurement": "IL-1β release", "setting": "[3]", "value": "didn't induce any detectable level of IL-1β"}
    ]}
  ]
}
